Measurements published in patent publication US20200085776A1, “Methods of Reducing C-Reactive Protein and/or Treating Cardiovascular Disease” (CARDAX, INC., priority 2018, published 2020).

How the values were obtained:
HDL = assay: Fasting lipid panel: HDL, CHASE clinical study; type: in vivo, human; settings: for HDL V2 to V6 % Change Max / HDL V2 to V6 % Change Mean (SD) / HDL V2 to V6 % Change Median / HDL V2 to V6 % Change Min / HDL V2 to V6 Change Max / HDL V2 to V6 Change Mean (SD) / HDL V2 to V6 Change Median / HDL V2 to V6 Change Min: baseline to Week 12
From the text: (§1) Blood samples shall be obtained under fasted conditions for a lipid panel at V2, V4, V6, V7, and V8. This panel shall include total cholesterol, LDL-C, VLDL-C, HDL-C, and triglycerides. A minimum eight-hour fast (water allowed) is required for the lipid panel.
(§2) Fasting lipid profiles and fasting chemistry panels may be obtained within the visit time window on a day separate from the scheduled office visit, within two days before or after the other study procedures. A minimum of eight hours fasted (water allowed ad lib) is required.
(§3) Table 7M provides the changes in lipid levels (mg/dL) (V2 to V6) for subjects.

LDL = assay: Fasting lipid panel: LDL, CHASE clinical study; type: in vivo, human; settings: for LDL V2 to V6 % Change Max / LDL V2 to V6 % Change Mean (SD) / LDL V2 to V6 % Change Median / LDL V2 to V6 % Change Min / LDL V2 to V6 Change Max / LDL V2 to V6 Change Mean (SD) / LDL V2 to V6 Change Median / LDL V2 to V6 Change Min: baseline to Week 12
From the text: as §1, §2, §3

[1] = Group X 12 mg BID, V2 baseline pre-dose, all subjects
[2] = Group X 12 mg BID, V2 baseline pre-dose, subjects with hyperlipidemia
[3] = Group X 12 mg BID, V6 Week 12, all subjects
[4] = Group X 12 mg BID, V6 Week 12, subjects with hyperlipidemia
[5] = Group X 12 mg BID, all subjects
[6] = Group X 12 mg BID, subjects with hyperlipidemia
[7] = Group Z 48 mg BID, V2 baseline pre-dose, all subjects
[8] = Group Z 48 mg BID, V2 baseline pre-dose, subjects with hyperlipidemia
[9] = Group Z 48 mg BID, V6 Week 12, all subjects
[10] = Group Z 48 mg BID, V6 Week 12, subjects with hyperlipidemia
[11] = Group Z 48 mg BID, all subjects
[12] = Group Z 48 mg BID, subjects with hyperlipidemia

CC1=C(/C=C/C(C)=C/C=C/C(C)=C/C=C/C=C(C)/C=C/C=C(C)/C=C/C2=C(C)C(=O)C(O)CC2(C)C)C(C)(C)CC(O)C1=O (centres unmarked) [Astaxanthin, astaxanthin]
HDL Max (HDL; [1]): 73.00 mg/dL
HDL Mean (SD) (HDL; [1]): 46.00 (17.37) mg/dL
HDL Median (HDL; [1]): 42.00 mg/dL
HDL Min (HDL; [1]): 24.00 mg/dL
HDL Max (HDL; [2]): 67.00 mg/dL
HDL Mean (SD) (HDL; [2]): 45.38 (17.08) mg/dL
HDL Median (HDL; [2]): 42.50 mg/dL
HDL Min (HDL; [2]): 24.00 mg/dL
HDL Max (HDL; [3]): 68.00 mg/dL
HDL Mean (SD) (HDL; [3]): 45.27 (13.68) mg/dL
HDL Median (HDL; [3]): 42.00 mg/dL
HDL Min (HDL; [3]): 29.00 mg/dL
HDL Max (HDL; [4]): 65.00 mg/dL
HDL Mean (SD) (HDL; [4]): 44.13 (13.24) mg/dL
HDL Median (HDL; [4]): 41.00 mg/dL
HDL Min (HDL; [4]): 29.00 mg/dL
HDL V2 to V6 % Change Max (HDL; [5]): 24.14%
HDL V2 to V6 % Change Mean (SD) (HDL; [5]): 1.78 (14.18) %
HDL V2 to V6 % Change Median (HDL; [5]): −2.99%
HDL V2 to V6 % Change Min (HDL; [5]): −16.3%
HDL V2 to V6 Change Max (HDL; [5]): 7.00 mg/dL
HDL V2 to V6 Change Mean (SD) (HDL; [5]): −0.73 (5.75) mg/dL
HDL V2 to V6 Change Median (HDL; [5]): -1.00 mg/dL
HDL V2 to V6 Change Min (HDL; [5]): -9.00 mg/dL
HDL V2 to V6 % Change Max (HDL; [6]): 24.14%
HDL V2 to V6 % Change Mean (SD) (HDL; [6]): 0.85 (15.61) %
HDL V2 to V6 % Change Median (HDL; [6]): −3.06%
HDL V2 to V6 % Change Min (HDL; [6]): −16.3%
HDL V2 to V6 Change Max (HDL; [6]): 7.00 mg/dL
HDL V2 to V6 Change Mean (SD) (HDL; [6]): −1.25 (6.11) mg/dL
HDL V2 to V6 Change Median (HDL; [6]): -1.50 mg/dL
HDL V2 to V6 Change Min (HDL; [6]): -9.00 mg/dL
HDL Max (HDL; [7]): 77.00 mg/dL
HDL Mean (SD) (HDL; [7]): 47.79 (14.77) mg/dL
HDL Median (HDL; [7]): 40.00 mg/dL
HDL Min (HDL; [7]): 29.00 mg/dL
HDL Max (HDL; [8]): 77.00 mg/dL
HDL Mean (SD) (HDL; [8]): 44.93 (13.59) mg/dL
HDL Median (HDL; [8]): 40.00 mg/dL
HDL Min (HDL; [8]): 29.00 mg/dL
HDL Max (HDL; [9]): 75.00 mg/dL
HDL Mean (SD) (HDL; [9]): 47.11 (14.59) mg/dL
HDL Median (HDL; [9]): 41.00 mg/dL
HDL Min (HDL; [9]): 30.00 mg/dL
HDL Max (HDL; [10]): 72.00 mg/dL
HDL Mean (SD) (HDL; [10]): 44.71 (13.00) mg/dL
HDL Median (HDL; [10]): 39.00 mg/dL
HDL Min (HDL; [10]): 32.00 mg/dL
HDL V2 to V6 % Change Max (HDL; [11]): 24.53%
HDL V2 to V6 % Change Mean (SD) (HDL; [11]): −3.43 (10.55) %
HDL V2 to V6 % Change Median (HDL; [11]): −5.80%
HDL V2 to V6 % Change Min (HDL; [11]): −22.7%
HDL V2 to V6 Change Max (HDL; [11]): 13.00 mg/dL
HDL V2 to V6 Change Mean (SD) (HDL; [11]): −1.72 (5.19) mg/dL
HDL V2 to V6 Change Median (HDL; [11]): -3.00 mg/dL
HDL V2 to V6 Change Min (HDL; [11]): -10.0 mg/dL
HDL V2 to V6 % Change Max (HDL; [12]): 24.53%
HDL V2 to V6 % Change Mean (SD) (HDL; [12]): −2.50 (11.26) %
HDL V2 to V6 % Change Median (HDL; [12]): −4.04%
HDL V2 to V6 % Change Min (HDL; [12]): −22.7%
HDL V2 to V6 Change Max (HDL; [12]): 13.00 mg/dL
HDL V2 to V6 Change Mean (SD) (HDL; [12]): −1.36 (5.64) mg/dL
HDL V2 to V6 Change Median (HDL; [12]): -2.00 mg/dL
HDL V2 to V6 Change Min (HDL; [12]): -10.0 mg/dL
LDL Max (LDL; [1]): 220.0 mg/dL
LDL Mean (SD) (LDL; [1]): 111.9 (61.26) mg/dL
LDL Median (LDL; [1]): 112.0 mg/dL
LDL Min (LDL; [1]): 37.00 mg/dL
LDL Max (LDL; [2]): 220.0 mg/dL
LDL Mean (SD) (LDL; [2]): 99.00 (66.54) mg/dL
LDL Median (LDL; [2]): 73.00 mg/dL
LDL Min (LDL; [2]): 37.00 mg/dL
LDL Max (LDL; [3]): 236.0 mg/dL
LDL Mean (SD) (LDL; [3]): 109.6 (67.65) mg/dL
LDL Median (LDL; [3]): 102.0 mg/dL
LDL Min (LDL; [3]): 40.00 mg/dL
LDL Max (LDL; [4]): 236.0 mg/dL
LDL Mean (SD) (LDL; [4]): 94.57 (70.92) mg/dL
LDL Median (LDL; [4]): 60.00 mg/dL
LDL Min (LDL; [4]): 40.00 mg/dL
LDL V2 to V6 % Change Max (LDL; [5]): 21.62%
LDL V2 to V6 % Change Mean (SD) (LDL; [5]): −3.46 (13.64) %
LDL V2 to V6 % Change Median (LDL; [5]): −7.02%
LDL V2 to V6 % Change Min (LDL; [5]): −21.6%
LDL V2 to V6 Change Max (LDL; [5]): 17.00 mg/dL
LDL V2 to V6 Change Mean (SD) (LDL; [5]): −2.30 (12.98) mg/dL
LDL V2 to V6 Change Median (LDL; [5]): -6.50 mg/dL
LDL V2 to V6 Change Min (LDL; [5]): -18.0 mg/dL
LDL V2 to V6 % Change Max (LDL; [6]): 21.62%
LDL V2 to V6 % Change Mean (SD) (LDL; [6]): −5.19 (15.13) %
LDL V2 to V6 % Change Median (LDL; [6]): −10.2%
LDL V2 to V6 % Change Min (LDL; [6]): −21.6%
LDL V2 to V6 Change Max (LDL; [6]): 16.00 mg/dL
LDL V2 to V6 Change Mean (SD) (LDL; [6]): −4.43 (12.39) mg/dL
LDL V2 to V6 Change Median (LDL; [6]): -11.0 mg/dL
LDL V2 to V6 Change Min (LDL; [6]): -18.0 mg/dL
LDL Max (LDL; [7]): 206.0 mg/dL
LDL Mean (SD) (LDL; [7]): 99.13 (46.59) mg/dL
LDL Median (LDL; [7]): 84.00 mg/dL
LDL Min (LDL; [7]): 34.00 mg/dL
LDL Max (LDL; [8]): 166.0 mg/dL
LDL Mean (SD) (LDL; [8]): 89.33 (40.83) mg/dL
LDL Median (LDL; [8]): 75.50 mg/dL
LDL Min (LDL; [8]): 34.00 mg/dL
LDL Max (LDL; [9]): 176.0 mg/dL
LDL Mean (SD) (LDL; [9]): 90.31 (37.82) mg/dL
LDL Median (LDL; [9]): 81.00 mg/dL
LDL Min (LDL; [9]): 49.00 mg/dL
LDL Max (LDL; [10]): 176.0 mg/dL
LDL Mean (SD) (LDL; [10]): 82.42 (37.25) mg/dL
LDL Median (LDL; [10]): 70.00 mg/dL
LDL Min (LDL; [10]): 49.00 mg/dL
LDL V2 to V6 % Change Max (LDL; [11]): 15.71%
LDL V2 to V6 % Change Mean (SD) (LDL; [11]): −14.5 (17.99) %
LDL V2 to V6 % Change Median (LDL; [11]): −12.0%
LDL V2 to V6 % Change Min (LDL; [11]): −50.0%
LDL V2 to V6 Change Max (LDL; [11]): 11.00 mg/dL
LDL V2 to V6 Change Mean (SD) (LDL; [11]): −18.9 (24.97) mg/dL
LDL V2 to V6 Change Median (LDL; [11]): -11.0 mg/dL
LDL V2 to V6 Change Min (LDL; [11]): -83.0 mg/dL
LDL V2 to V6 % Change Max (LDL; [12]): 15.00%
LDL V2 to V6 % Change Mean (SD) (LDL; [12]): −17.4 (18.43) %
LDL V2 to V6 % Change Median (LDL; [12]): −12.5%
LDL V2 to V6 % Change Min (LDL; [12]): −50.0%
LDL V2 to V6 Change Max (LDL; [12]): 9.00 mg/dL
LDL V2 to V6 Change Mean (SD) (LDL; [12]): −20.5 (26.25) mg/dL
LDL V2 to V6 Change Median (LDL; [12]): -11.0 mg/dL
LDL V2 to V6 Change Min (LDL; [12]): -83.0 mg/dL
